{"source": "patent US20210205264A1", "about": "“USE OF DELTA-TOCOTRIENOL FOR TREATING CANCER” (H. LEE MOFFITT CANCER CENTER & RESEARCH INSTITUTE INC., priority 2018, published 2021)", "key": {"[1]": {"parameters": "species or system humans", "conditions": "in vivo", "method": "Two phase I dose-escalation studies were performed determining safety, pharmacokinetics, and pharmacodynamics after twice daily oral administration of d-T3 for 14 consecutive days before surgery in patients with resectable pancreatic exocrine neoplasia and in healthy individuals. […] Based on experience from clinical trials and in animal studies, a dose of 400 mg twice daily was selected for the trial. It should be noted that d-T3 concentration is several times higher in fatty tissues such as the pancreas and colon."}, "β-catenin": {"tested_on": "β-catenin", "assay": "β-catenin immunofluorescence and Western blot in CCSCs", "type": "cell-based, human", "description": "FIGS. 9A, 9B, 9C, and 9D show quantification of β-catenin in the nucleus and cytoplasm of CCSCs with confocal microscopy (FIGS. 9A & 9B) after treatment with vehicle, aspirin, d-T3, and aspirin+d-T3.\nAs noted above, stability of the β-catenin complex by inactivation of APC leads to stabilization and nuclear translocation of β-catenin and to transcriptional activation of β-catenin target genes such as c-Myc and cyclin D1. […] Furthermore, d-T3 inhibition of CCSCs is associated with the downregulation of β-catenin, c-Myc, cyclin D1, and survivin as measured by Western blot in CCSCs (FIG. 9D)."}, "HT-29": {"tested_on": "HT-29", "assay": "Apoptosis induction in HT-29", "type": "cell-based, human"}, "BID": {"tested_on": "BID", "assay": "Activation of BID (tBID) by Western blotting in CCSCs", "type": "cell-based, human", "conditions": "24-hour treatment; aspirin 5 mM, d-T3 50 μM", "method": "FIGS. 10A, 10B, 10C, and 10D show induction of apoptosis measured by flow cytometry (FIG. 10A) and confocal microscopy (FIG. 10B) in CCSCs after treatment with vehicle, aspirin, d-T3, and aspirin+d-T3. Effect of BID inhibitor on apoptosis in CCSCs after treatment with aspirin or d-T3 (FIG. 10C). Induction oft-BID in CCSCs after treatment with vehicle, aspirin, d-T3, and aspirin+d-T3 (FIG. 10D).\nd-T3 can induce selective killing of CCSCs through the BH3 interacting-domain death agonist (BID). […] It should be noted that these in vitro results are consistent with the in vivo observation of the selective induction of apoptosis in APC mutant colon crypt cells in the ApcMin/+ mice but not in the normal intestinal cells of the AOM rat CRC model or NOD/SCID mice. […] Although the proapoptotic activity of d-T3 is a consistent observation of d-T3 anticancer activity in all of the published reports, the mechanism by which d-T3 induces apoptosis is poorly understood. Apoptotic death is regulated by the death receptor (extrinsic) and mitochondrial (intrinsic) pathways. […] To obtain preliminary information regarding the mechanisms by which d-T3 induces apoptosis in CCSCs, the activation of BID was measured after 24-hour treatment with vehicle, aspirin (5 mM), d-T3 (50 μM), and aspirin combined with d-T3 in CCSCs by Western blotting."}, "CCSCs": {"tested_on": "CCSCs", "assay": "miRNA profiles in CCSCs", "type": "cell-based, human", "conditions": "24-hour treatment; aspirin 5 mM, d-T3 10 μM", "description": "Given the results, and without intending to be bound by any theory, it appears that the induction of apoptosis can be one mechanism by which d-T3 prevents CRC and augments CRC prevention activity. BID knockout can diminish this effect. The biorepository as well as materials generated from studies can be used to explore other mechanisms of d-T3 action such as anti-inflammatory, mediation of the immune system, anti-angiogenesis, and alterations in metabolism. To this end, miRNA profiles were conducted that are altered with d-T3, aspirin, and d-T3 with aspirin treatment in CCSCs. To discover early miRNAs that are likely to influence activity, these cells were deliberately treated with doses of these agents at a duration when there were no phenotypic changes of apoptosis."}, "hCAS": {"target": "T1, hCAS (Homo sapiens, UniProt P55060)", "T1 construct": "endogenous in cells; host or cells: MiaPaCa-2 human pancreatic cancer cells", "T1 sequence (P55060 1-971)": "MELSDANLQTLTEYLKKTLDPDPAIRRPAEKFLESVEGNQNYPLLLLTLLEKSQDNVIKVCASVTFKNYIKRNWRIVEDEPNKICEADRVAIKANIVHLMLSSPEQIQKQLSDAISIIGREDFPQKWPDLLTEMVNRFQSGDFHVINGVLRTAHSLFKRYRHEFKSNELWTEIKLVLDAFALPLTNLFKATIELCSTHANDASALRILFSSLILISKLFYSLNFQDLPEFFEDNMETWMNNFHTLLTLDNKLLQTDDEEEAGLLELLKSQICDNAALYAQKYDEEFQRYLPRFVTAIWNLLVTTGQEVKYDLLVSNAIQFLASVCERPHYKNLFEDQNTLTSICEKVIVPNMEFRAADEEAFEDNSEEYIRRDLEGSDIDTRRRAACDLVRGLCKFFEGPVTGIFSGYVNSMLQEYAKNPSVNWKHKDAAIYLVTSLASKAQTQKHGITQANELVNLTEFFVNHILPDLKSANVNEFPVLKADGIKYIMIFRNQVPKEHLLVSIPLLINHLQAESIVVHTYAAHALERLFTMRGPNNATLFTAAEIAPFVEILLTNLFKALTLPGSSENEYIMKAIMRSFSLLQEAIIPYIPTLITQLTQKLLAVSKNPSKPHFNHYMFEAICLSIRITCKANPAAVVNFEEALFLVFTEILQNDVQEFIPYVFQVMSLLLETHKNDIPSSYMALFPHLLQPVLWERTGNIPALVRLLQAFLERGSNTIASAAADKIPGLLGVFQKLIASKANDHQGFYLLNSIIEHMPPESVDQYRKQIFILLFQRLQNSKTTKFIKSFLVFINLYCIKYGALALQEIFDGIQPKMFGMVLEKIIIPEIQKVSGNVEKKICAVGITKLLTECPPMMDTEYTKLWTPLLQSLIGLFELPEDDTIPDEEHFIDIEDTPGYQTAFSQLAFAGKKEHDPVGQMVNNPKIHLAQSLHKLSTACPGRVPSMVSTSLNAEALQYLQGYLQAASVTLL", "assay": "hCAS protein levels in MiaPaCa-2 cells", "type": "cell-based"}, "HPNE cells": {"tested_on": "HPNE cells", "assay": "Anchorage-independent growth / colony formation of HPNE cells over-expressing hCAS", "type": "cell-based", "conditions": "d-T3 concentration escalation"}}}
{"compound": "CC(C)=CCC/C(C)=C/CC/C(C)=C/CC[C@]1(C)CCc2cc(O)cc(C)c2O1", "note": "[d-T3, δ-tocotrienol]", "values": [{"measurement": "AUC", "setting": "[1]; human, po", "result": "≤ 175", "unit": "µM·h"}, {"measurement": "Cmax", "setting": "[1]; human, po", "result": "≤ 17", "unit": "µM"}, {"measurement": "half-life", "setting": "[1]; human, po", "result": "approximately 4 hours"}, {"measurement": "dose-limiting toxicities", "setting": "[1]", "result": "no dose-limiting toxicities"}, {"measurement": "β-catenin, c-Myc, cyclin D1, and survivin by Western blot", "setting": "β-catenin", "result": "downregulation"}, {"measurement": "amount of β-catenin translocated to the nucleus", "setting": "β-catenin; immunofluorescence staining", "result": "significantly decreased"}, {"measurement": "apoptosis", "setting": "HT-29", "result": "significantly induced apoptosis"}, {"measurement": "activation of tBID", "setting": "BID", "result": "significantly activated"}, {"measurement": "down-regulation of miRNAs compared with vehicle (number)", "setting": "CCSCs", "result": 9, "unit": "miRNAs"}, {"measurement": "up-regulation of miRNAs compared with vehicle (number)", "setting": "CCSCs", "result": 7, "unit": "miRNAs"}, {"measurement": "time at which decrease of hCAS levels starts", "setting": "hCAS", "result": 6, "unit": "h"}, {"measurement": "time of maximum effect on hCAS levels", "setting": "hCAS", "result": "24 to 48", "unit": "h"}, {"measurement": "hCAS levels", "setting": "hCAS; d-T3 50 uM", "result": "decreases the hCAS levels"}, {"measurement": "dose response on growth / colony formation", "setting": "HPNE cells", "result": "potent dose-dependent effect"}, {"measurement": "dose response on growth / colony formation", "setting": "HPNE cells; listed as δ-T3", "result": "robust dose-response"}]}
